From patent US7223403B2, “Method to prepare compositions comprising yeast treated with electromagnetic energy” (Ultra Biotech Limited, priority 2003, dated 2007)
Like-named read-outs stand apart in the source and are kept apart here.

Experiments:
[1] = test system: Wistar King rat brain cancer cell line WKS-1; test: Wistar rat model of human brain cancer, growth of the tumor (Example 8); format: in vivo; conditions: WKS-1 tumor-bearing rats, 30 consecutive days of treatment, sacrificed on 31st day; AY/NY 0.8 ml oral once per day, VCR 3 mg/kg/day i.v.
Method: The growth of the tumor in the rats was studied.
About 2×10^7 viable tumor cells of the Wistar King rat brain cancer type WKS-1 (obtainable from the Shanghai Medical University, Shanghai, China) in about 0.4 ml culture suspension were injected subcutaneously into the animals.
In group AY, the rats received 0.8 ml of the biological composition once per day. In group NY, the rats received 0.8 ml of the untreated yeast cells once per day. […] In group CK1, the rats received 0.8 ml of physiological saline once per day.
On the 31st day from tumor inoculation, the rats were sacrificed.

[2] = test system: Wistar King rat brain cancer cell line WKS-1; conditions: 2VCR 4.5 mg/kg/day i.v.; for Number of live animals remaining in the groups after 30 days of treatment: 30 rats per group
Method: The survival time of rats after tumor injection and treatment was studied.
(§1) The biological composition comprising 10^8 cells per ml of activated and conditioned yeast cells of the strain Saccharomyces cerevisiae Hansen strain AS2.501 was prepared by the methods described in Section 5.1 and subsections therein.
The animals were prepared in a similar manner as described in Section 8.1.
(§2) The rats injected with tumor cells were immediately divided into 4 experimental groups of ten rats per group and one control group. The four experimental groups were triplicated (i.e., using a total of 120 rats in the experimental groups). In group 2AY, the rats received 1.2 ml of the biological composition once per day. In group 2NY, the rats received 1.2 ml of the untreated yeast cells once per day. In group 2VCR, the rats were injected intravenously with 4.5 mg of vinblastine (VCR) per kg body weight per day. In group 2CK1, the rats received 1.2 ml of physiological saline once per day.
(§3) The rats received the biological compositions, untreated yeast cells, VCR, or saline on the same day as the tumor cells were transplanted. The rats in group 2CK2 also started receiving saline on the same day as the other four groups. The biological compositions, untreated yeast cells and saline were administered orally by a feeding tube and the VCR by intravenous injection for 30 consecutive days. The rats were observed over 6 months from the day of tumor inoculation and survival was recorded. The weight of the rats and the weight of the tumor were determined by standard techniques.

[3] = test system: kun ming murine brain cancer cell line B22; test: kun ming mouse model of human brain cancer, growth of the tumor (Example 6); conditions: B22 tumor-bearing mice, 30 consecutive days of treatment, sacrificed on 31st day; AY/NY 0.3 ml oral once per day, BCNU 0.8 mg/kg/day s.c.
Method: as §1
The mice injected with tumor cells were immediately divided into 4 experimental groups of ten mice per group and one control group. The four experimental groups were triplicated (i.e., using a total of 120 mice in the experimental groups).
as §3, with “mice” for “rats”, “BCNU” for “VCR,”, “CK2” for “2CK2”, “BCNU” for “VCR”, “subcutaneous” for “intravenous”, “The rats were observed over 6 months from the day of tumor inoculation and survival was recorded.” left out

[4] = test system: kun ming murine brain cancer cell line B22; conditions: 2BCNU 1.2 mg/kg/day s.c.; for Number of live animals remaining in the groups after 30 days of treatment: 30 mice per group
Method: The survival time of mice after tumor injection and treatment was studied.
as §1
The animals were prepared in a similar manner as described in Section 6.1.
as §2, with “mice” for “rats”, “0.5” for “1.2”, “2BCNU,” for “2VCR,”, “subcutaneously” for “intravenously”, “1.2” for “4.5”, “chloroethylnitrosourea (BCNU)” for “vinblastine (VCR)”
as §3, with “mice” for “rats”, “BCNU” for “VCR,”, “BCNU” for “VCR”, “subcutaneous” for “intravenous”

[5] = rats that survived, observed over 6 months, 2AY/2NY 1.2 ml oral per day, 30 days
[6] = mice that survived, observed over 6 months, 2AY/2NY 0.5 ml oral per day, 30 days

CC[C@]1(O)C[C@@H]2CN(CCc3c([nH]c4ccccc34)[C@@](C(=O)OC)(c3cc4c(cc3OC)N(C)[C@H]3[C@@](O)(C(=O)OC)[C@H](OC(C)=O)[C@]5(CC)C=CCN6CC[C@]43[C@@H]65)C2)C1 [VCR, vinblastine]
mean weight of rats and standard deviation [1]: 188.3 ± 8.3 g | mean weight of tumor nodules and standard deviation [1]: 2.87 ± 2.54 g | Number of live animals remaining in the groups after 30 days of treatment ([2]; 0 month after cessation of treatment, 2AY/2NY 1.2 ml oral per day): 30 | Number of live animals remaining in the groups after 30 days of treatment ([2]; 1 month after cessation of treatment, 2AY/2NY 1.2 ml oral per day): 30 | survival outcome during the experiment ([2]; 2NY 1.2 ml oral per day, 30 days, observed over 6 months): all died during the experiment | Number of live animals remaining in the groups after 30 days of treatment ([2]; 2 months after cessation of treatment, 2AY/2NY 1.2 ml oral per day): 30 | Number of live animals remaining in the groups after 30 days of treatment ([2]; 3 months after cessation of treatment, 2AY/2NY 1.2 ml oral per day): 17 | Number of live animals remaining in the groups after 30 days of treatment ([2]; 4 months after cessation of treatment, 2AY/2NY 1.2 ml oral per day): 7 | Number of live animals remaining in the groups after 30 days of treatment ([2]; 5 months after cessation of treatment, 2AY/2NY 1.2 ml oral per day): 3 | Number of live animals remaining in the groups after 30 days of treatment ([2]; 6 months after cessation of treatment, 2AY/2NY 1.2 ml oral per day): 0 | mean weight of rats and standard deviation [2, 5]: all animals dead | mean weight of tumor nodules and standard deviation [2, 5]: all animals dead

O=NN(CCCl)C(=O)NCCCl [BCNU, chloroethylnitrosourea]
mean weight of mice and standard deviation [3]: 18.4 ± 3.4 g | mean weight of tumor nodules and standard deviation [3]: 1.02 ± 0.52 mg | Number of live animals remaining in the groups after 30 days of treatment ([4]; 0 month after cessation of treatment, 2AY/2NY 0.5 ml oral per day): 30 | Number of live animals remaining in the groups after 30 days of treatment ([4]; 1 month after cessation of treatment, 2AY/2NY 0.5 ml oral per day): 21 | survival outcome during the experiment ([4]; 2NY 0.5 ml oral per day, 30 days, observed over 6 months): all died during the experiment | Number of live animals remaining in the groups after 30 days of treatment ([4]; 2 months after cessation of treatment, 2AY/2NY 0.5 ml oral per day): 15 | Number of live animals remaining in the groups after 30 days of treatment ([4]; 3 months after cessation of treatment, 2AY/2NY 0.5 ml oral per day): 4 | Number of live animals remaining in the groups after 30 days of treatment ([4]; 4 months after cessation of treatment, 2AY/2NY 0.5 ml oral per day): 0 | Number of live animals remaining in the groups after 30 days of treatment ([4]; 5 months after cessation of treatment, 2AY/2NY 0.5 ml oral per day): 0 | Number of live animals remaining in the groups after 30 days of treatment ([4]; 6 months after cessation of treatment, 2AY/2NY 0.5 ml oral per day): 0 | mean weight of mice and standard deviation [4, 6]: all animals dead | mean weight of tumor nodules and standard deviation [4, 6]: all animals dead
